Data reported in publication PMC7041944 (eLife, 2020).
Read-outs that look alike come from different tables or passages of the source.

Assays:
[1] = tested on: KOR; format: cell-based, murine
[2] = tested on: MOR; format: cell-based, murine
[3] = tested on: MOR; format: cell-based, murine; remark: listed apart in the source
[4] = tested on: KOR; format: cell-based, murine; remark: listed apart in the source
[5] = tested on: KOR; format: cell-based, murine; remark: listed apart in the source
[6] = tested on: KOR; format: cell-based, murine; remark: listed apart in the source
[7] = tested on: KOR; experiment: mGs probe recruitment to KOR (TIR-FM); format: cell-based, murine; settings: DynA 1 nM - 10 μM; Venus-mGs, HEK293, TIR-FM
Method: Live cell image series measuring protein recruitment to the plasma membrane were performed at 37°C using a Nikon Ti-E microscope equipped for through-the-objective TIR-FM with a temperature-, humidity- and CO2-controlled chamber (Okolab), objective heater, perfect focus system, and an Andor DU897 EMCCD camera. Images were obtained with a 100 × 1.49 NA Apo TIRF objective (Nikon) with solid-state lasers of 488, 561 and 647 nm (Keysight Technologies). Before imaging, receptors at the cell surface were labelled with M1 monoclonal FLAG antibody (1:1,000) conjugated to Alexa647 dye for 10 min at 37°C. Cells were then washed and live imaged in HBS imaging solution (Hepes buffered saline (HBS) with 135 mM NaCl, 5 mM KCl, 0.4 mM MgCl2,1.8 mM CaCl2, 20 mM Hepes, 5 mM d-glucose adjusted to pH 7.4 and 300–315 mOsmol/l). Agonists or antagonists were either added by bath application at concentrations indicated in the figure legends or by media perfusion. For the latter, an insert was 3D-printed and placed inside the imaging dish where it left a dead volume of about 300 μL. […]
For probing protein recruitment to the plasma membrane, HEK293 cells co-expressing the cytosolic protein of interest (mGsi, Nb33, or GRK2) and MOR or KOR were imaged using TIR-FM. […] Protein intensity during time lapse series was measured using ImageJ. […]

[8] = tested on: KOR; format: cell-based, murine; remark: listed apart in the source
[9] = target: signal sequence FLAG (ssf)-KOR, murine (kappa opioid receptor) (murine) (UniProt P33534); experiment: TIR-FM recruitment of a fluorescent cytosolic protein to the plasma membrane of living cells; HEK293 cells co-expressing the fluorescent cytosolic protein and the receptor; 37 C, HBS imaging solution pH 7.4; agonists added in rising concentrations (1 nM - 10 uM) by bath application or perfusion: DynA, U69, U50, etorphine for KOR; DAMGO, etorphine, morphine, PZM21, MP for MOR; reversed by the antagonists 5'GNTI or naloxone; also with Cmpd101 (30 uM)
Sequence of UniProt P33534 (P33534 whole entry, the tested form may be a part): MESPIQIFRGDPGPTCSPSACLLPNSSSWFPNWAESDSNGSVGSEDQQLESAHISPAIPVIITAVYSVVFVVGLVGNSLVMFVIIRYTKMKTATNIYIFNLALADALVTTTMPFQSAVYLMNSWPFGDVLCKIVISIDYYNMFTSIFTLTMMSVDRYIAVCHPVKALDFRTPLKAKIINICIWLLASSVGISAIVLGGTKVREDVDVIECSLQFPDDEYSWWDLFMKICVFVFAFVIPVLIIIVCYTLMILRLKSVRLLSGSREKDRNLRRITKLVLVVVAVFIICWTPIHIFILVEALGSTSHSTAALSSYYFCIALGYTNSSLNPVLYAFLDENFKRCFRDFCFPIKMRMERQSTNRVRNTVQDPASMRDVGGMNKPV

## Cl.Cl.NC(N)=Nc1ccc2[nH]c3c(c2c1)C[C@@]1(O)[C@H]2Cc4ccc(O)c5c4[C@@]1(CCN2CC1CC1)[C@H]3O5 [5’GNTI, GNTI dihydrochloride]
[1]
  reversal of DynA-induced mGsi recruitment by KOR antagonist: rapid redistribution of the biosensor back to the cytoplasm

## CC[C@@H]1CN2CC[C@]3(Nc4cccc(OC)c4C3=O)[C@@H]2C[C@@H]1/C(=C\OC)C(=O)OC [MP, mitragynine pseudoindoxyl]
[2]
  mGsi/Nb33, ratio of intrinsic activities: 7.47
[2]; SEM
  I.A.(mGsi), intrinsic activity (maximal response): 0.31±0.02
[3]
  Nb33 recruitment by MOR (in words): without promoting detectable recruitment
[3]; SEM
  I.A.(Nb33), intrinsic activity (maximal response): 0.04±0.05

## C[C@@H](Cc1ccsc1)NC(=O)NC[C@H](Cc1ccc(O)cc1)N(C)C [PZM21]
[2]
  mGsi/Nb33, ratio of intrinsic activities: 2.60
[2]; SEM
  I.A.(mGsi), intrinsic activity (maximal response): 0.70±0.02
[3]; SEM
  I.A.(Nb33), intrinsic activity (maximal response): 0.27±0.05

## DAMGO, [D-Ala2, N-Me-Phe4, Gly5-ol]-Enkephalin acetate salt
[2]
  I.A.(mGsi), intrinsic activity (maximal response): 1.00
  mGsi/Nb33, ratio of intrinsic activities: 1
[3]
  I.A.(Nb33), intrinsic activity (maximal response): 1.00

## Dynorphin A (1–17, DynA)
[1]
  I.A.(mGsi), intrinsic activity (maximal response): 1.00
  mGsi/Nb33, ratio of intrinsic activities: 1
[4]
  I.A.(Nb33), intrinsic activity (maximal response): 1.00
[5]
  GRK2 recruitment in cells pre-exposed to pertussis toxin: significant recruitment response
[6]
  GRK2 accumulation at KOR-containing clusters (in words): specifically accumulated at the KOR-containing clusters
[7]
  mGs recruitment in response to KOR activation: not detectably recruited
[8]
  recruitment of isolated C-terminal PH domain from GRK2 (GRK2-C-tail): similarly strong recruitment

## NES-Venus-mGsi (mini-G protein: Ras-like domain of Gs alpha with nine distal C-terminal residues from Gi alpha1) (designed binder)
[9]
  maximum recruitment with etorphine, percent of that with DynA: 67%
